This data set in a line: Log P by HPLC on reversed phase, method [a], acidic range (0.1% formic acid). Type of data set: physicochemical. Conditions: LC-UV, 0.1% formic acid in water and acetonitrile.
On to `O=C(Nc1cnn(-c2ccc(C(F)(F)F)cc2)c1-c1ccccc1)c1cccnc1C(F)F` [Example 186], for which the LogP is 3.24^[a].

In the case of `O=C(Nc1cnn(-c2ccc(Cl)cc2)c1-c1ccc(F)cc1)c1cccnc1C(F)F` [Example 187], the LogP is 3.10^[a].

Take `O=C(Nc1cnn(-c2ccc(C(F)(F)F)cc2)c1Cl)c1cccnc1C(F)F` [Example 188]: the LogP was 2.81^[a].

Consider `COc1ccc(-n2ncc(NC(=O)c3cccnc3C(F)F)c2Cl)cc1` [Example 189], for which the LogP was 2.09^[a].

Consider `O=C(Nc1cnn(-c2ccc(F)cc2)c1Cl)c1cccnc1C(F)F` [Example 190], for which the LogP was 2.14^[a].

As to `O=C(Nc1cnn(-c2ccccc2Cl)c1Cl)c1cccnc1C(F)F` [Example 191], the LogP was 2.17^[a].

Consider `O=C(Nc1cnn(-c2ccc(F)cc2)c1Br)c1cccnc1C(F)F` [Example 192], for which the LogP is 2.17^[a].

For `COc1ccc(-n2ncc(NC(=O)c3cccnc3C(F)F)c2Br)cc1` [Example 193], the LogP is 2.09^[a].

As for `O=C(Nc1cnn(-c2ccc(Cl)cc2)c1-c1ccc(Cl)cc1)c1cccnc1C(F)F` [Example 194], the LogP is 3.35^[a].

In the case of `O=C(Nc1cnn(-c2ccc(Br)cc2)c1-c1ccc(F)cc1)c1cccnc1C(F)F` [Example 195], the LogP was 3.20^[a].

In the case of `O=C(Nc1cnn(-c2ccc(Br)cc2)c1-c1ccccc1)c1cccnc1C(F)F` [Example 196], the LogP was 3.10^[a].

In the case of `O=C(Nc1cnn(-c2ccc(Cl)cc2)c1-c1cccc(F)c1)c1cccnc1C(F)F` [Example 197], the LogP was 3.07^[a].

`O=C(Nc1cnn(-c2ccc(Cl)cc2)c1-c1ccccc1)c1cccnc1C(F)F` [Example 198]: the LogP was 2.99^[a].

`O=C(Nc1cnn(-c2ccc(Br)cc2)c1-c1cccc(Cl)c1)c1cccnc1C(F)F` [Example 199]: the LogP was 3.46^[a].

On to `O=C(Nc1cnn(-c2ccc(Br)cc2)c1-c1ccc(Cl)cc1)c1cccnc1C(F)F` [Example 200], for which the LogP was 3.46^[a].

Take `O=C(Nc1cnn(-c2ccc(Br)cc2)c1-c1cccc(F)c1)c1cccnc1C(F)F` [Example 201]: the LogP was 3.19^[a].

Turning to `O=C(Nc1cnn(-c2cc(Cl)cc(Cl)c2)c1Cl)c1cccnc1C(F)F` [Example 202], the LogP is 3.19^[a].

Regarding `O=C(Nc1cnn(-c2cc(Cl)cc(Cl)c2)c1Br)c1cccnc1C(F)F` [Example 203], the LogP was 3.23^[a].

As to `CCc1c(NC(=O)c2cc(C)cnc2C(F)F)cnn1-c1ccccc1C` [Example 204], the LogP is 2.44^[a].

As for `Cc1cnc(C(F)F)c(C(=O)Nc2cnn(-c3ccccc3C)c2C(C)C)c1` [Example 205], the LogP was 2.60^[a].

For `CCc1c(NC(=O)c2cc(C)cnc2C(F)F)cnn1-c1cccc(C)c1` [Example 206], the LogP was 2.57^[a].

On to `CCc1c(NC(=O)c2cc(C)cnc2C(F)F)cnn1-c1ccc(C)cc1` [Example 207], for which the LogP is 2.57^[a].

Regarding `Cc1ccc(-n2ncc(NC(=O)c3cc(C)cnc3C(F)F)c2C(C)C)cc1` [Example 208], the LogP was 2.73^[a].

Take `Cc1cnc(C(F)F)c(C(=O)Nc2cnn(-c3ccccc3Cl)c2C(C)C)c1` [Example 209]: the LogP is 2.59^[a].

As for `Cc1cnc(C(F)F)c(C(=O)Nc2cnn(-c3cccc(Cl)c3)c2C(C)C)c1` [Example 210], the LogP was 2.84^[a].

For `Cc1cnc(C(F)F)c(C(=O)Nc2cnn(-c3ccc(Cl)cc3)c2C(C)C)c1` [Example 211], the LogP is 2.86^[a].

As for `CCc1c(NC(=O)c2cc(C)cnc2C(F)F)cnn1-c1ccccc1Cl` [Example 212], the LogP was 2.41^[a].

Regarding `CCc1c(NC(=O)c2cc(C)cnc2C(F)F)cnn1-c1cccc(Cl)c1` [Example 213], the LogP was 2.71^[a].

Take `CCc1c(NC(=O)c2cc(C)cnc2C(F)F)cnn1-c1ccc(Cl)cc1` [Example 214]: the LogP is 2.73^[a].

Take `COc1c(NC(=O)c2cccnc2C(F)F)cnn1-c1ccccc1Cl` [Example 215]: the LogP was 1.85^[a].

As for `COc1c(NC(=O)c2cccnc2C(F)F)cnn1-c1cc(Cl)cc(Cl)c1` [Example 216], the LogP is 3.02^[a].

Regarding `O=C(Nc1cnn(-c2ccccc2Cl)c1Br)c1cccnc1C(F)F` [Example 217], the LogP was 2.18^[a].

As to `COc1c(NC(=O)c2cccnc2C(F)F)cnn1-c1ccc(Cl)cc1` [Example 218], the LogP was 2.32^[a].

For `COc1c(NC(=O)c2cccnc2C(F)F)cnn1-c1ccc(C(F)(F)F)cc1` [Example 219], the LogP was 2.63^[a].

As for `O=C(Nc1cnn(-c2ccc(Cl)cc2)c1Br)c1cccnc1C(F)F` [Example 220], the LogP is 2.50^[a].

As to `O=C(Nc1cnn(-c2ccc(Cl)cc2)c1OCC(F)(F)F)c1cccnc1C(F)F` [Example 221], the LogP was 2.88^[a].

With `O=C(Nc1cnn(-c2ccc(Cl)cc2)c1OCC(F)F)c1cccnc1C(F)F` [Example 222], the LogP is 2.60^[a].

`N#Cc1c(NC(=O)c2cccnc2C(F)F)cnn1-c1ccc(Cl)cc1` [Example 223]: the LogP was 2.64^[a].

Take `O=C(Nc1cnn(-c2ccc(Cl)cc2)c1SC(F)(F)F)c1cccnc1C(F)F` [Example 224]: the LogP was 3.25^[a].

`CCOc1c(NC(=O)c2cccnc2C(F)F)cnn1-c1ccc(Cl)cc1` [Example 225]: the LogP is 2.62^[a].

Consider `CC(C)Oc1c(NC(=O)c2cccnc2C(F)F)cnn1-c1ccc(Cl)cc1` [Example 226], for which the LogP was 2.86^[a].

As for `CCCOc1c(NC(=O)c2cccnc2C(F)F)cnn1-c1ccc(Cl)cc1` [Example 227], the LogP is 2.95^[a].

Consider `O=C(Nc1cnn(-c2ccc(Br)cc2)c1SC(F)(F)F)c1cccnc1C(F)F` [Example 228], for which the LogP is 3.43^[a].

For `CCCc1ccc(-n2ncc(NC(=O)c3cccnc3C(F)F)c2C(F)(F)F)cc1` [Example 229], the LogP is 3.59^[a].

On to `CCOc1ccc(-n2ncc(NC(=O)c3cccnc3C(F)F)c2C(F)(F)F)cc1` [Example 230], for which the LogP is 2.88^[a].

As for `CC(C)(C)c1ccc(-n2ncc(NC(=O)c3cccnc3C(F)F)c2C(F)(F)F)cc1` [Example 231], the LogP is 3.79^[a].

Turning to `O=C(Nc1cnn(-c2ccc(-c3ccccc3)cc2)c1C(F)(F)F)c1cccnc1C(F)F` [Example 232], the LogP was 3.59^[a].

Consider `O=C(Nc1cnn(-c2ccc(Oc3ccccc3)cc2)c1C(F)(F)F)c1cccnc1C(F)F` [Example 233], for which the LogP is 3.59^[a].

Turning to `O=C(Nc1cnn(-c2ccc(I)cc2)c1C(F)(F)F)c1cccnc1C(F)F` [Example 234], the LogP is 3.25^[a].

As for `O=C(Nc1cnn(-c2ccc(Br)cc2)c1OCC(F)F)c1cccnc1C(F)F` [Example 235], the LogP is 2.68^[a].

Consider `O=C(Nc1cnn(-c2ccc(Cl)cc2)c1C(F)(F)F)c1cccnc1CF` [Example 236], for which the LogP is 2.67^[a].

Consider `Cc1ncccc1C(=O)Nc1cnn(-c2ccc(Cl)cc2)c1C(F)(F)F` [Example 237], for which the LogP was 2.12^[a].

With `Cc1cccc(-n2ncc(NC(=O)c3cc(C)cnc3C(F)F)c2C(C)C)c1` [Example 238], the LogP is 2.75^[a].

In the case of `CCc1c(NC(=O)c2cc(C)cnc2C(F)F)cnn1-c1cccc(C(F)(F)F)c1` [Example 239], the LogP is 2.94^[a].

For `CCc1c(NC(=O)c2cc(C)cnc2C(F)F)cnn1-c1ccc(C(F)(F)F)cc1` [Example 240], the LogP is 3.00^[a].

With `Cc1cnc(C(F)F)c(C(=O)Nc2cnn(-c3ccc(OC(F)(F)F)cc3)c2C)c1` [Example 241], the LogP is 2.86^[a].

As for `Cc1c(NC(=O)c2cccnc2C(F)F)cnn1-c1ccc(OC(F)(F)F)cc1` [Example 242], the LogP was 2.64^[a].

Take `O=C(Nc1cnn(-c2ccc(SC(F)(F)F)cc2)c1C(F)(F)F)c1cccnc1C(F)F` [Example 243]: the LogP was 3.68^[a].

As to `O=C(Nc1cnn(-c2ccc(Oc3ccc(Cl)cc3)cc2)c1C(F)(F)F)c1cccnc1C(F)F` [Example 244], the LogP was 4.11^[a].

With `Cc1ccc(Oc2ccc(-n3ncc(NC(=O)c4cccnc4C(F)F)c3C(F)(F)F)cc2)cc1` [Example 245], the LogP was 4.03^[a].

On to `CSc1ccc(-n2ncc(NC(=O)c3cccnc3C(F)F)c2C(F)(F)F)cc1` [Example 246], for which the LogP is 2.94^[a].

As for `O=C(Nc1cnn(-c2ccc(OC(F)(F)C(F)F)cc2)c1C(F)(F)F)c1cccnc1C(F)F` [Example 247], the LogP is 3.19^[a].

For the compound `O=C(Nc1cnn(-c2ccc(Br)cc2)c1C(F)(F)F)c1cccnc1CF` [Example 248], the LogP was 2.80^[a].

As for `Cc1ncccc1C(=O)Nc1cnn(-c2ccc(Br)cc2)c1C(F)(F)F` [Example 249], the LogP is 2.28^[a].

Take `COCc1c(NC(=O)c2cc(C)cnc2C(F)F)cnn1-c1ccc(Br)cc1` [Example 250]: the LogP is 2.80^[a].

Regarding `COCc1c(NC(=O)c2cccnc2C(F)F)cnn1-c1ccc(Br)cc1` [Example 251], the LogP was 2.58^[a].

For `O=C(Nc1cnn(-c2ccc(Cl)c(Cl)c2)c1Cl)c1cccnc1C(F)F` [Example 252], the LogP is 3.06^[a].

Consider `O=C(Nc1cnn(-c2cc(F)c(F)c(F)c2)c1Cl)c1cccnc1C(F)F` [Example 253], for which the LogP is 2.66^[a].

For the compound `O=C(Nc1cnn(-c2ccc(OC3CCCCC3)cc2)c1C(F)(F)F)c1cccnc1C(F)F` [Example 254], the LogP is 4.11^[a].

In the case of `CCc1ccc(-n2ncc(NC(=O)c3cccnc3C(F)F)c2C(F)(F)F)cc1` [Example 255], the LogP is 3.19^[a].

(Values after patent US10039283B2, “Substituted pyrazolyl-nicotin(thio)amide derivatives and their use as fungicides” (BAYER CROPSCIENCE AKTIENGESELLSCHAFT, priority 2014, dated 2018).)
